Results as given in article PMC11076738, “A rapid and simple non-radioactive assay for measuring uptake by solute carrier transporters” (Frontiers in Pharmacology, 2024).

Tests used:
Format in all cases: cell-based
BMP reporter gene = BMP reporter gene assay (Id1-Luc) in HEK293T cells; conditions: HEK293T cells with Id1-Luc reporter; 3 μM, 12 h
Protocol: HEK293T cells transfected with Id1-Luc reporter construct were seeded into a 96-well plate (190 μL/well of 3,000 cells/mL)) and then treated with 3 μM JH7 for 12 h. FK506 and DMSO were used as positive and negative controls, respectively. Cells were removed 100 μL DMEM and added in 40 μL Bright-Glo™ Luciferase reagent (per well) and placed on a plate-shaker for 10 min. Bright-Glo™ Luciferase Assay was performed with Ensight plate reader.

NTCP = biological target: T1, NTCP (Homo sapiens, UniProt Q14973); test: TCA-d4 uptake assay (LC-MS/MS) in HepG2 NTCP cells
T1 construct: His-tag; expressed in transfected cells
T1 sequence (Q14973 1-349): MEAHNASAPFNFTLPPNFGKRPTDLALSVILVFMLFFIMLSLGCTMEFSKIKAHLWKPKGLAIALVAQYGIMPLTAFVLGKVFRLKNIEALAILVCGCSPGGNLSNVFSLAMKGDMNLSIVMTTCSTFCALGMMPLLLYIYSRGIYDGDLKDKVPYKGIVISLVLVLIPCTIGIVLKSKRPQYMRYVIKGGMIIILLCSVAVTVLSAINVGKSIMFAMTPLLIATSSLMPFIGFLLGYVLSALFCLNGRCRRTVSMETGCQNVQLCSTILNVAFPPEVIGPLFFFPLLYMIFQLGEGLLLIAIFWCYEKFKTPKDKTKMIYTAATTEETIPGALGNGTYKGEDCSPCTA
Protocol: HepG2 NTCP cells were seeded into 12-well plates at a density of 2×10^5/well. After a 48 h incubation, cells were carefully washed with uptake buffer (10 mM HEPES, 100 mM NaCl, 2 mM KCl, 1 mM MgCl2, 1 mM CaCl2, pH 7.4) twice and incubated in 0.5 mL of uptake buffer for 15 min at 37 °C. […] Cells were then allowed to take up 5 μM of TCA-d4 at 37 °C for another 15 min. After incubation, cells were washed with uptake buffer three times and lysed with 200 μL of ethanol. The cell lysate was transferred to a new tube and the supernatant was collected by centrifugation at 12,000 rpm for 10 min at 4°C. TCA-d4 uptake was quantified with LC-MS/MS.
Prepared samples were separated on an Agilent 1290 II system (CA, United States) equipped with an XSelect HSS T3 C18 reverse phase column (2.1 × 150 mm, 3.5 μm). […] To separate TCA-d4, the mobile phase consisted of solution A (5 mM ammonium formate) and solution B (methanol). […]
Targeted analytes were monitored in a negative multiple-reaction monitoring (MRM) mode on an Agilent 6495C triple quadrupole LS/MS system (CA, United States). […] Leucine-d3 and TCA-d4 were monitored in negative ion mode with MRM ion pairs at 135.1 > 89.2 (collision energy: 14 eV) and 518.0 > 124.0 (collision energy: 65 eV), respectively. […]

LAT1 [1] = biological target: T2, LAT1 (Homo sapiens, UniProt Q01650); test: 3H-leucine uptake assay in LS174T cells; conditions: read-out: IC50, inhibition of 3H-leucine uptake, radioactive method, mean ± s.d., n = 3
T2 construct: endogenous in cells; host or cells: LS174T (wild type)
T2 sequence (Q01650 whole entry): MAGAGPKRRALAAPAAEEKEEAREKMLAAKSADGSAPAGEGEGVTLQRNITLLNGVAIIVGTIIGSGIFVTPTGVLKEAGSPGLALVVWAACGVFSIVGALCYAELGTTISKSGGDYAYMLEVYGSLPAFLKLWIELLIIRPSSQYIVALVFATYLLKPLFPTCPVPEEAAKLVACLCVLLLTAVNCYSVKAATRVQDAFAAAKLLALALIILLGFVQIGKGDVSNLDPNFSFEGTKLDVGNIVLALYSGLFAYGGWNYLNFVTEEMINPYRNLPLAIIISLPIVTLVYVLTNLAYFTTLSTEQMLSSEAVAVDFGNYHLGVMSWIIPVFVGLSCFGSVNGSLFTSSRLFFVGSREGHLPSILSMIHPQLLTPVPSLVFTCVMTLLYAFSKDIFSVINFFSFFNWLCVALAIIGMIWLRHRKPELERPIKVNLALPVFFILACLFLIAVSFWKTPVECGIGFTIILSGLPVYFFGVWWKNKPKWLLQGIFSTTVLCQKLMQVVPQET
T2 sequence (P08195 102-630 partner): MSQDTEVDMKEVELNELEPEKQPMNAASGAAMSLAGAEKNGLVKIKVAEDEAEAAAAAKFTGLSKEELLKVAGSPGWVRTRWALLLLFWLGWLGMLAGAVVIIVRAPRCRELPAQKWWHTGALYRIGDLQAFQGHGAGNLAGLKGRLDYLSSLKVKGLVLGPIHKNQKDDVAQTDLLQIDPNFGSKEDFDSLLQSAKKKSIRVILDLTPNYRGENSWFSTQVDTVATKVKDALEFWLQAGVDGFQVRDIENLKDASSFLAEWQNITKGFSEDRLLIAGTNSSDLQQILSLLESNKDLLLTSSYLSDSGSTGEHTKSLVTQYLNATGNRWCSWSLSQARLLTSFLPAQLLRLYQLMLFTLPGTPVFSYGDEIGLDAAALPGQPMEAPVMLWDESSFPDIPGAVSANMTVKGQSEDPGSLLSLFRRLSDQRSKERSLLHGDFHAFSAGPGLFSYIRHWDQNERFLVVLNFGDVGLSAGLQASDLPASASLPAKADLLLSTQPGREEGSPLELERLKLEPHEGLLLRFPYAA
Protocol: The inhibitory activity of JPH203 on LAT1 was analyzed by measuring the cell uptake of ^3H-leucine as previously described with minor modifications ([Oda et al., 2010]). Similar to leucine-d3 uptake assay, LS174T cells were washed twice and incubated in Na^+-free uptake medium (10 mM Tris-HCl, 150 mM KCl, 5 mM MgCl2, 1 mM EGTA, pH 7.4) for 15 min. Cells were added with JPH203 or DMSO and incubated for another 15 min before adding ^3H-leucine. After 15 min incubation, cells were washed three times and lysed with 0.2 N NaOH plus 0.2% SDS. The cell lysate was transferred to a new tube containing 1 mL of optiphase supermix. ^3H-leucine uptake was quantified with a scintillation counter.

LAT1 [2] = biological target: T2, LAT1; test: leucine-d3 uptake assay (LC-MS/MS) in LS174T cells; conditions: 5 μM leucine-d3, 15 min uptake, mean ± s.d., n = 3, read-out: IC50, inhibition of leucine-d3 uptake
Protocol: LS174T cells were seeded into 12-well plates at a density of 1×10^6/well. After a 48 h incubation, cells were carefully washed with prewarmed Na^+-free uptake buffer (10 mM Tris-HCl, 150 mM KCl, 5 mM MgCl2, 1 mM EGTA, pH 7.4) twice and incubated in 0.5 mL of Na^+-free uptake buffer at 37 °C for 15 min. Cells were washed with Na^+-free uptake buffer once again and incubated with different concentrations of JPH203 or DMSO at 37 °C for 15 min. Cells were then allowed to take up 5 μM of leucine-d3 at 37 °C for another 15 min. After incubation, cells were washed with Na^+-free uptake buffer three times and lysed with 200 μL of acetonitrile. The cell lysate was transferred to a new tube and the supernatant was collected by centrifugation at 12,000 rpm for 10 min at 4°C. Leucine-d3 uptake was quantified with LC-MS/MS.
Prepared samples were separated on an Agilent 1290 II system (CA, United States) equipped with an XSelect HSS T3 C18 reverse phase column (2.1 × 150 mm, 3.5 μm). […]
Targeted analytes were monitored in a negative multiple-reaction monitoring (MRM) mode on an Agilent 6495C triple quadrupole […] system (CA, United States). […] Leucine-d3 and TCA-d4 were monitored in negative ion mode with MRM ion pairs at 135.1 > 89.2 (collision energy: 14 eV) and 518.0 > 124.0 (collision energy: 65 eV), respectively. […]

Row | IC50 (NTCP; 5 μM TCA-d4, 15 min uptake, mean ± s.d., n = 3, read-out: IC50, inhibition of TCA-d4 uptake) | TCA-d4 uptake (% of control) (NTCP; rapafucins at a final concentration of 2 μM) | IC50 (LAT1 [1]) | IC50 (LAT1 [2]) | SMILES | activation of BMP reporter gene (BMP reporter gene)
1 | 49.3 ± 0.8 nM | 19.35 % of control |  |  | CCCC[C@H]1C(=O)N[C@@H](Cc2ccc(F)cc2)C(=O)N(C)CC/C=C/C(=O)OCC(C)(C)C(=O)C(=O)N2CCCC[C@H]2C(=O)O[C@H](CCc2ccc(OC)c(OC)c2)c2cccc(c2)OCC(=O)N(C)CC(=O)N[C@@H](Cc2cccs2)C(=O)N1C [JH7] | did not activate
2 |  |  | 960 ± 90 nM | 1110 ± 210 nM | Nc1cc(COc2c(Cl)cc(C[C@H](N)C(=O)O)cc2Cl)c2oc(-c3ccccc3)nc2c1 [JPH203] | 
